Source: patent US9890111B2, “Crystal structure of bifunctional transglycosylase PBP1b from E. coli and inhibitors thereof” (Academia Sinica, priority 2008, dated 2018)
Converted amounts (≈) assume the structure as drawn.

What follows are molecules tested against T1, penicillin-binding protein 1b from E. coli (transglycosylase) (Escherichia coli, UniProt P02919) (assay: Lipid II polymerization / transglycosylase (TG) activity assay). Conditions: 50 μM compound; TG activity remaining (0% = full inhibition).
T1 construct: PBP1b[58-804] was amplified from E. coli genomic DNA and cloned into the expression vector pET15b; His6 (N, cleaved yes); made in house; host or cells: E. coli BL21(DE3)
T1 sequence (P02919 58-804): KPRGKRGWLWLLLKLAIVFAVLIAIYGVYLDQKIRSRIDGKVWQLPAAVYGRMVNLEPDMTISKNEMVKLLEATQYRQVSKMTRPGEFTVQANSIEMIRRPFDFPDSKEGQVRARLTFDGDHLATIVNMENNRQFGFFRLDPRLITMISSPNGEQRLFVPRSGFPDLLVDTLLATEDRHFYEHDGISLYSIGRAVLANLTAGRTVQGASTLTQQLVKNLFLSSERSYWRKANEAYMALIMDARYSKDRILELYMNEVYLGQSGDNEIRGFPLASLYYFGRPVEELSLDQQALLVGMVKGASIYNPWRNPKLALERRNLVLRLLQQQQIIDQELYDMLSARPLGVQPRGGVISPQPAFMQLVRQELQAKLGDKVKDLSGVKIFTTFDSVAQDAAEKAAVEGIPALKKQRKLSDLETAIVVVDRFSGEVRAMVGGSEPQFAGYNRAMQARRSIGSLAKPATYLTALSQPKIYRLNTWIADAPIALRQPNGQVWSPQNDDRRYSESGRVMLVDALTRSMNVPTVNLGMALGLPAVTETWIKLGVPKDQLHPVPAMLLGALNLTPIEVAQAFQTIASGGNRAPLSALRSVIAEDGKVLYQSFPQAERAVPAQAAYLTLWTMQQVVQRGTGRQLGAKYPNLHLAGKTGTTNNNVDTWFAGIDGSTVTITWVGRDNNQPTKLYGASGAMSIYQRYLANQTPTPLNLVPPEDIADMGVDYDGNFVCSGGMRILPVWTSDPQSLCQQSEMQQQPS
Format: biochemical
Description: Lipid II polymerization assays were carried out by incubating 100 μM fluorophore-labeled lipid II and penicillin-binding protein 1b from E. coli in tubes containing 10 ng/μL N-acetyl muramidase in 50 mM Tris.HCl (pH 8.0), 10 mM MgCl2, 0.1% Triton X-100, 10% DMSO, and 15% MeOH for 30 minutes (Van Nieuwenhze et al. J Am Chem Soc 2002, 124, 3656.). The fluorophore can be dansyl chloride, NBD, BODIPY, fluorescein. Reaction supernatants were then injected onto an anion-exchange HPLC column (SAX1, Supelco Co.) and eluted with a linear gradient of ammonium acetate (20 mM to 0.5 M) in methanol. The eluant was monitored for fluorescence with λex=466 nm and λem=535 nm.
Purified protein was concentrated in 20 mM Tris-HCl (pH 8.0), 300 mM NaCl, and 1 mM DDM. Instead of using Dansyl lipid II, 6-(N-(7-nitrobenz-2-oxa-1,3-diazol-4-yl)amino) hexanoyl (NBD)-labeled Lipid II was prepared as described (Taubes G (2008) Science 321:356-361; Payne D J (2008) Science 321:1644-1645) and used as a substrate to measure TG enzymatic activity, with approach similar to what has been described previously (Holtje J V (1998) Microbiol Mol Biol Rev 62:181-203). Assays were carried out by using the following condition: NBD-Lipid II, 20 nM protein, 50 mM Tris HCl (pH 8.0), 10 mMCaCl2, 0.085% decyl PEG (Anatrace), and 15% MeOH at 37° C. for 0, 1, 3, 5, 7, 9, 20, and 30 min. The concentration of NBD-Lipid II was varied from 1 to 100 μM to determine the rate of the TG activity. After the reaction, 200 μM moenomycin was added to stop the reaction, and 13 μM muramidase (Sigma-Aldrich) was added to digest the TG products to result in NBD-Lipid II without lipid tails. The fluorescent signal decrease of substrate and increase of NBD-Lipid II without lipid tails were detected by anion-exchange column SAX1 (Supelco) on HPLC (Hitachi). The elution procedures was a linear gradient of ammonium acetate (20 mM to 1 M) in MeOH monitored at λexcitation=466 nm and λemission=535 nm. The kinetic parameter was estimated by following the Michaelis-Menten equation. To investigate the importance of transmembrane (TM) helix, PBP1b and PBP1bΔTM (residues Met-1 to Leu-87 were removed) were extracted with the buffer containing 20 mM Tris-HCl (pH 8.0), 300 mM NaCl, and 13 mM FOS-CHOLINE-14 (Anatrace). The protein was purified by nickel chelation chromatography in the presence of 1 mM DDM. The activity assay was carried out by using the following condition: 12 μM NBD-Lipid II, 20 nM protein, 50 mM Tris-HCl (pH 8.0), 10 mM CaCl2, 0.085% decyl PEG, and 15% MeOH at 37° C. for time 0, 1, 3, 5, 7, 9, 20, and 30 min. The initial velocity was used to compare the activity of full-length PBP1b and PBP1bΔTM.

Row | SMILES | TG Activity at various concentration of cmpd: 50 μM
1 | O=C(Nc1ccccc1Oc1ccccc1)c1ccccc1O [Compound A3N2] | 100%
2 | O=C(Nc1cc(Cl)ccc1Oc1ccccc1)c1ccccc1 [Compound A4N1] | 100%
3 | Cc1ccc(NC(=O)c2ccccc2)cc1Cl [Compound A4N3] | 100%
4 | O=C(Nc1cc(Cl)ccc1Oc1ccccc1)c1ccc(O)c(O)c1O [Compound A5N1] | 100%
5 | O=C(Nc1ccccc1Oc1ccccc1)c1ccc(O)c(O)c1O [Compound A5N2] | 100%
6 | O=C(Nc1cc(Cl)ccc1Oc1ccccc1)c1ccc(O)cc1 [Compound A6N1] | 100%
7 | O=C(Nc1ccccc1Oc1ccccc1)c1ccc(O)cc1 [Compound A6N2] | 100%
8 | Cc1ccc(NC(=O)c2ccc(O)cc2)cc1Cl [Compound A6N3] | 100%

Same assay, conditions: 100 μM compound; TG activity remaining (0% = full inhibition)

Row | SMILES | TG Activity at various concentration of cmpd: 100 μM
9 | O=C(Nc1ccccc1Oc1ccccc1)c1ccccc1O [Compound A3N2] | 100%
10 | O=C(Nc1cc(Cl)ccc1Oc1ccccc1)c1ccccc1 [Compound A4N1] | 100%
11 | Cc1ccc(NC(=O)c2ccccc2)cc1Cl [Compound A4N3] | 100%
12 | O=C(Nc1cc(Cl)ccc1Oc1ccccc1)c1ccc(O)c(O)c1O [Compound A5N1] | 0%
13 | O=C(Nc1ccccc1Oc1ccccc1)c1ccc(O)c(O)c1O [Compound A5N2] | 0%
14 | O=C(Nc1cc(Cl)ccc1Oc1ccccc1)c1ccc(O)cc1 [Compound A6N1] | 100%
15 | O=C(Nc1ccccc1Oc1ccccc1)c1ccc(O)cc1 [Compound A6N2] | 100%
16 | Cc1ccc(NC(=O)c2ccc(O)cc2)cc1Cl [Compound A6N3] | 100%

Same assay, conditions: read-out: TG Activity at various concentration of cmpd: 50 μM

Row | SMILES | remaining activity at 50 µM
17 | O=C(Nc1cccc(Cl)c1)c1cc(Br)cc(Br)c1O [Compound 203] | 100%
18 | Cc1ccc(NC(=O)c2ccccc2O)cc1Cl [Compound A3N3] | 100%
19 | O=C(Nc1ccc(Cl)cc1)c1ccccc1O [Compound A3N4] | 100%
20 | O=C(Nc1ccc([N+](=O)[O-])cc1)c1ccccc1O [Compound A3N5] | 100%
21 | COc1ccc(NC(=O)c2ccccc2O)cc1 [Compound A3N6] | 100%
22 | Cc1ccc(NC(=O)c2ccc(O)c(O)c2O)cc1Cl [Compound A5N3] | 100%

Same assay, conditions: read-out: TG Activity at various concentration of cmpd: 100 μM

Row | SMILES | remaining activity at 100 µM
23 | O=C(Nc1cccc(Cl)c1)c1cc(Br)cc(Br)c1O [Compound 203] | 100%
24 | Cc1ccc(NC(=O)c2ccccc2O)cc1Cl [Compound A3N3] | 100%
25 | O=C(Nc1ccc(Cl)cc1)c1ccccc1O [Compound A3N4] | 100%
26 | O=C(Nc1ccc([N+](=O)[O-])cc1)c1ccccc1O [Compound A3N5] | 100%
27 | COc1ccc(NC(=O)c2ccccc2O)cc1 [Compound A3N6] | 100%
28 | Cc1ccc(NC(=O)c2ccc(O)c(O)c2O)cc1Cl [Compound A5N3] | 0%

The molecules below were run on Staphylococcus aureus (ATCC29213, SA) (assay: Minimal inhibitory concentration (MIC), SA). Conditions: Staphylococcus aureus ATCC29213.
Format: cell-based
Description: (§1) The minimal inhibitory concentration (MIC) of tested compounds was determined following the NCCLS standard. The experiments were conducted in 96-well microtiter plates using two-fold dilutions in Muller-Hilton broth with (Streptococcus pneumonia) or without blood (Bacillus subtilis, Enterococcus faecalis, Staphylococcus aureus, Escherichia coli, MRSA, Actinetobacter baumannii, Pseudomonas aeruginosa, Stenotrophomonas maltophilia, and Mycobacterium smegmatis). Exponentially growing cells at 5×10^5 cells/ml were incubated with test compounds at various concentrations. After an 18 h to 24 h incubation at 37° C., MIC was determined as the minimal concentration of the compound that prevents bacterial growth.

Row | SMILES | MIC SA
29 | O=C(Nc1cc(Cl)c(Cl)c(Cl)c1)c1cc(Cl)cc(Cl)c1O [Compound 142] | 0.5 µg/mL (≈ 1.3 µM)
30 | O=C(Nc1ccccc1Oc1ccccc1)c1ccccc1O [Compound A3N2] | 8 µg/mL (≈ 26.2 µM)
31 | O=C(Nc1cc(Cl)ccc1Oc1ccccc1)c1ccccc1 [Compound A4N1] | >32 µg/mL
32 | Cc1ccc(NC(=O)c2ccccc2)cc1Cl [Compound A4N3] | >32 µg/mL
33 | O=C(Nc1cc(Cl)ccc1Oc1ccccc1)c1ccc(O)c(O)c1O [Compound A5N1] | 8 µg/mL (≈ 21.5 µM)
34 | O=C(Nc1ccccc1Oc1ccccc1)c1ccc(O)c(O)c1O [Compound A5N2] | 8 µg/mL (≈ 23.7 µM)
35 | O=C(Nc1cc(Cl)ccc1Oc1ccccc1)c1ccc(O)cc1 [Compound A6N1] | 16 µg/mL (≈ 47.1 µM)
36 | O=C(Nc1ccccc1Oc1ccccc1)c1ccc(O)cc1 [Compound A6N2] | >32 µg/mL
37 | Cc1ccc(NC(=O)c2ccc(O)cc2)cc1Cl [Compound A6N3] | 32 µg/mL (≈ 122 µM)

Same assay, conditions: Staphylococcus aureus, ATCC29213, Staphylococcus aureus ATCC29213; read-out: MIC SA

Row | SMILES | MIC
38 | O=C(Nc1cc(Cl)ccc1Cl)c1cc(Cl)cc(Cl)c1O [Compound 141] | 1 µg/mL (≈ 2.85 µM)
39 | O=C(Nc1cccc(Cl)c1)c1cc(Br)cc(Br)c1O [Compound 203] | 2 µg/mL (≈ 4.93 µM)
40 | Cc1ccc(NC(=O)c2ccccc2O)cc1Cl [Compound A3N3] | 4 µg/mL (≈ 15.3 µM)
41 | O=C(Nc1ccc(Cl)cc1)c1ccccc1O [Compound A3N4] | 8 µg/mL (≈ 32.3 µM)
42 | O=C(Nc1ccc([N+](=O)[O-])cc1)c1ccccc1O [Compound A3N5] | 4 µg/mL (≈ 15.5 µM)
43 | COc1ccc(NC(=O)c2ccccc2O)cc1 [Compound A3N6] | > 32 µg/mL
44 | Cc1ccc(NC(=O)c2ccc(O)c(O)c2O)cc1Cl [Compound A5N3] | 4 µg/mL (≈ 13.6 µM)

The molecules below were run on methicillin-resistant Staphylococcus aureus (ATCC33592, MRSA) (assay: Minimal inhibitory concentration (MIC), MRSA). Conditions: Staphylococcus aureus, methicillin-resistant Staphylococcus aureus ATCC33592; read-out: MIC MRSA.
Format: cell-based
Description: as §1

Row | SMILES | MIC
45 | O=C(Nc1cc(Cl)ccc1Cl)c1cc(Cl)cc(Cl)c1O [Compound 141] | 0.5 µg/mL (≈ 1.42 µM)
46 | O=C(Nc1cccc(Cl)c1)c1cc(Br)cc(Br)c1O [Compound 203] | 2 µg/mL (≈ 4.93 µM)

Same assay, conditions: methicillin-resistant Staphylococcus aureus ATCC33592

Row | SMILES | MIC MRSA
47 | O=C(Nc1cc(Cl)c(Cl)c(Cl)c1)c1cc(Cl)cc(Cl)c1O [Compound 142] | 0.5 µg/mL (≈ 1.3 µM)

What follows are molecules tested on Mycobacterium smegmatis (ATCC11565, MS) (assay: Minimal inhibitory concentration (MIC), MS). Conditions: Mycobacterium smegmatis ATCC11565.
Format: cell-based
Description: as §1

Row | SMILES | MIC MS
48 | O=C(Nc1cc(Cl)c(Cl)c(Cl)c1)c1cc(Cl)cc(Cl)c1O [Compound 142] | 0.125 µg/mL (≈ 0.324 µM)

Same assay, conditions: Mycolicibacterium smegmatis, ATCC11565, Mycobacterium smegmatis ATCC11565; read-out: MIC MS

Row | SMILES | MIC
49 | O=C(Nc1cc(Cl)ccc1Cl)c1cc(Cl)cc(Cl)c1O [Compound 141] | 2 µg/mL (≈ 5.7 µM)
50 | O=C(Nc1cccc(Cl)c1)c1cc(Br)cc(Br)c1O [Compound 203] | 4 µg/mL (≈ 9.87 µM)
